Source: PMC3735939, “The low levels of eicosapentaenoic acid in rat brain phospholipids are maintained via multiple redundant mechanisms” (Journal of Lipid Research, 2013)
“And” between values parts separate entries of the source, which are not always exact repeats. Equal entries are not always repeated. One block for each molecule: values may come before it.

Assays:
[1] = Radioactivity in brain lipid fractions after 5 min intravenous 14C-tracer infusion (TLC, LSC); type: in vivo, rat; settings: for total radioactivity in brain total phospholipids: not adjusted for percent composition of 14C-EPA; for esterification of radiolabeled FA into brain total phospholipids: 14C-EPA-infused rats
Description: (§1) Twenty-four hours postsurgery, a second catheter (iv catheter 24 gauge/0.75 inch, Angiocath™; Becton Dickinson) was implanted into the tail vein where rats received either vehicle or 10 mg/kg of MEP. Ten minutes post injection of vehicle or MEP, the tail vein catheter was connected to a syringe containing radiolabeled ^14C-palmitate (n = 8), ^14C-DHA (n = 6), or ^14C-EPA (n = 7) attached to a computer-controlled variable speed pump (PHD 22/2000; Harvard Apparatus, Holliston, MA). […] Each rat received a dose of 76 μCi ^14C-palmitate, 76 μCi ^14C-DHA, or 78 μCi ^14C-EPA. […] The radiotracer infusions continued until rats were euthanized. The brain was excised and cut sagittally. Both hemispheres were stored at −80°C for radioactive and biochemical analyses. Plasma was isolated from whole blood via microcentrifugation at 6,200 rpm (2,000 g) for 5 min and stored at −80°C. Total lipids from one brain hemisphere and from plasma were extracted by the method of Folch, Lees, and Sloane Stanley ([39]). Isolation of various neutral lipid and phospholipid classes from the total lipid extract was previously described by Chen, Liu, and Bazinet ([6]). FA methyl esters and radioactive acyl-CoA analysis were previously described by Chen, Liu, and Bazinet ([6]).

[2] = system: mitochondrial FA β-oxidation; assay: Radioactivity in brain aqueous fraction (marker of β-oxidation) after 5 min intravenous 14C-tracer infusion; type: in vivo, rat; settings: vehicle injection; 5 min iv infusion of tracer
Description: as §1, with “([6]).” for “([6]). FA methyl esters and radioactive acyl-CoA analysis were previously described by Chen, Liu, and Bazinet ([6]).”

[3] = In vivo kinetics of FA incorporation and turnover in brain phospholipids (intravenous radiotracer infusion, kinetic model); parameters: species or system rat
Description: Twenty-four hours postsurgery, a second catheter (iv catheter 24 gauge/0.75 inch, Angiocath™; Becton Dickinson) was implanted into the tail vein where rats received either vehicle or 10 mg/kg of MEP. […] The radiotracers were infused for 5 min via the tail vein catheter at a rate of 0.223(1 + e^−19.2t) ml/min (t is infusion time in minutes) ([37]) which achieves a steady-state plasma radioactivity within 1 min ([18], [38]). […] During the 5 min infusion, blood samples were collected from the jugular vein at approximately 0, 0.25, 0.5, 0.75, 1.5, 3, 4, and 5 min while the unanesthetized rat was mobile in the infusion box with food and water. […] After 5 min, the rats were rapidly euthanized by head-focused high-energy microwave irradiation (13.5 kW for 1.6 s; Cober Electronics Inc., Stratford, CT). The radiotracer infusions continued until rats were euthanized. The brain was excised and cut sagittally. Both hemispheres were stored at −80°C for radioactive and biochemical analyses. Plasma was isolated from whole blood via microcentrifugation at 6,200 rpm (2,000 g) for 5 min and stored at −80°C.
The model for in vivo kinetics of brain FAs in rats has been previously described ([17], [18], [21], [23], [25], [37], [41]).
Because the infusion is 5 min, contributions of FA from de novo synthesis and esterified plasma FA are negligible ([18], [20], [23], [41]); thus only contributions from plasma unesterified FAs and acyl-CoA pools were considered in the calculation of λpalmitate, DHA, or EPA .

[4] = cited from earlier work
[5] = Identification of radiolabeled FAs in brain phospholipids by HPLC and LSC after 14C-EPA infusion; type: in vivo, rat; settings: for percent of total radiolabeled FAs: brain total phospholipids;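 for radiolabeled FA composition: percent of radiolabeled FAs within each phospholipid class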
Description: as §1

total radioactivity in brain total phospholipids ([1]; MEP): 22 ± 0.6 nCi/g brain
total radioactivity in brain total phospholipids ([1]; vehicle): 17 ± 0.9 nCi/g brain
radioactivity of brain aqueous fraction [2]: 21 nCi/g brain
FFA rate of turnover ([3]; ChoGpl, MEP): 28 ± 4.5 %/day
JFA net incorporation rate from brain acyl-CoA ([3]; ChoGpl, MEP): 16 ± 2.3 nmol/g/day
Jin net incorporation rate from plasma unesterified FA ([3]; ChoGpl, MEP): 3.7 ± 0.31^! nmol/g/day
FFA rate of turnover ([3]; ChoGpl, Vehicle): 46 ± 6.9 %/day
JFA net incorporation rate from brain acyl-CoA ([3]; ChoGpl, Vehicle): 23 ± 3.3 nmol/g/day
Jin net incorporation rate from plasma unesterified FA ([3]; ChoGpl, Vehicle): 2.8 ± 0.55 nmol/g/day
FFA rate of turnover ([3]; EtnGpl, MEP): 9.5 ± 3.3 %/day
JFA net incorporation rate from brain acyl-CoA ([3]; EtnGpl, MEP): 5.4 ± 1.4 nmol/g/day
Jin net incorporation rate from plasma unesterified FA ([3]; EtnGpl, MEP): 1.2 ± 0.17 nmol/g/day
FFA rate of turnover ([3]; EtnGpl, Vehicle): 8.4 ± 0.81 %/day
JFA net incorporation rate from brain acyl-CoA ([3]; EtnGpl, Vehicle): 6.4 ± 1.3 nmol/g/day
Jin net incorporation rate from plasma unesterified FA ([3]; EtnGpl, Vehicle): 0.78 ± 0.19 nmol/g/day
λ dilution factor ([3]; MEP): 0.24 ± 0.022
FFA rate of turnover ([3]; PtdIns, MEP): 17 ± 6.6 %/day
JFA net incorporation rate from brain acyl-CoA ([3]; PtdIns, MEP): 3.0 ± 1.4 nmol/g/day
Jin net incorporation rate from plasma unesterified FA ([3]; PtdIns, MEP): 0.73 ± 0.41 nmol/g/day
FFA rate of turnover ([3]; PtdIns, Vehicle): 24 ± 1.7 %/day
JFA net incorporation rate from brain acyl-CoA ([3]; PtdIns, Vehicle): 4.5 ± 0.2 nmol/g/day
Jin net incorporation rate from plasma unesterified FA ([3]; PtdIns, Vehicle): 0.52 ± 0.087 nmol/g/day
FFA rate of turnover ([3]; PtdSer, MEP): 3.1 ± 0.43 %/day
JFA net incorporation rate from brain acyl-CoA ([3]; PtdSer, MEP): 1.2 ± 0.13 nmol/g/day
Jin net incorporation rate from plasma unesterified FA ([3]; PtdSer, MEP): 0.29 ± 0.057 nmol/g/day
FFA rate of turnover ([3]; PtdSer, Vehicle): 3.1 ± 0.56 %/day
JFA net incorporation rate from brain acyl-CoA ([3]; PtdSer, Vehicle): 1.4 ± 0.36 nmol/g/day
Jin net incorporation rate from plasma unesterified FA ([3]; PtdSer, Vehicle): 0.17 ± 0.055 nmol/g/day
FFA rate of turnover ([3]; Total PL, MEP): 17 ± 2.3 %/day
JFA net incorporation rate from brain acyl-CoA ([3]; Total PL, MEP): 31 ± 4.8 nmol/g/day
Jin net incorporation rate from plasma unesterified FA ([3]; Total PL, MEP): 7.3 ± 0.7^! nmol/g/day
FFA rate of turnover ([3]; Total PL, Vehicle): 21 %/day and 21 ± 2.9 %/day
JFA net incorporation rate from brain acyl-CoA ([3]; Total PL, Vehicle): 47 ± 5.7 nmol/g/day
Jin net incorporation rate from plasma unesterified FA ([3]; Total PL, Vehicle): 5.7 nmol/g/day and 5.7 ± 1.1 nmol/g/day
Jin as percent of the Jout ([3]; rat, in vivo): 36%
recycling into brain phospholipids, fold lower than DHA ([3]; rat, in vivo): 154 fold
λ dilution factor ([3]; vehicle): 0.12 ± 0.014 and 0.12 ± 0.01
radiolabeled FA composition ([5]; ChoGpl, MEP-treated rats): 66%
radiolabeled FA composition ([5]; ChoGpl, vehicle-treated rats): 65%
radiolabeled FA composition ([5]; EtnGpl, MEP-treated rats): 25%
radiolabeled FA composition ([5]; EtnGpl, vehicle-treated rats): 24%
radiolabeled FA composition ([5]; PtdIns, MEP-treated rats): 65%
radiolabeled FA composition ([5]; PtdIns, vehicle-treated rats): 66%
radiolabeled FA composition ([5]; PtdSer, MEP-treated rats): 54%
radiolabeled FA composition ([5]; PtdSer, vehicle-treated rats): 44%
percent of total radiolabeled FAs ([5]; MEP-treated rats): 56%
percent of total radiolabeled FAs ([5]; vehicle-treated rats): 62%
Structure (SMILES): CC/C=C\C/C=C\C/C=C\C/C=C\C/C=C\CCCC(=O)O [EPA, eicosapentaenoic acid]
Jout net rate of loss from brain phospholipids [4]: 16 nmol/g/day
loss t1/2 from brain phospholipids [4]: 120 h
rate of loss from brain phospholipids [4]: 14 % per day

radioactivity of brain aqueous fraction [2]: 17 nCi/g brain
FFA rate of turnover ([3]; ChoGpl, MEP): 53 ± 13 %/day
JFA net incorporation rate from brain acyl-CoA ([3]; ChoGpl, MEP): 12,720 ± 3,120 nmol/g/day
FFA rate of turnover ([3]; ChoGpl, Vehicle): 84 ± 33 %/day
JFA net incorporation rate from brain acyl-CoA ([3]; ChoGpl, Vehicle): 20,713 ± 9,692 nmol/g/day
FFA rate of turnover ([3]; EtnGpl, MEP): 110 ± 37 %/day
JFA net incorporation rate from brain acyl-CoA ([3]; EtnGpl, MEP): 3,062 ± 1,011 nmol/g/day
FFA rate of turnover ([3]; EtnGpl, Vehicle): 161 ± 66 %/day
JFA net incorporation rate from brain acyl-CoA ([3]; EtnGpl, Vehicle): 4,926 ± 2,623 nmol/g/day
Jin into diacylglycerol ([3]; MEP): 238 ± 34 nmol/g/day
Jin into triacylglycerol ([3]; MEP): 276 ± 19 nmol/g/day
FFA rate of turnover ([3]; PtdIns, MEP): 311 ± 135 %/day
JFA net incorporation rate from brain acyl-CoA ([3]; PtdIns, MEP): 2,443 ± 1,153 nmol/g/day
FFA rate of turnover ([3]; PtdIns, Vehicle): 292 ± 80 %/day
JFA net incorporation rate from brain acyl-CoA ([3]; PtdIns, Vehicle): 2,679 ± 1,655 nmol/g/day
FFA rate of turnover ([3]; PtdSer, MEP): 261 ± 194 %/day
JFA net incorporation rate from brain acyl-CoA ([3]; PtdSer, MEP): 849 ± 562 nmol/g/day
FFA rate of turnover ([3]; PtdSer, Vehicle): 356 ± 259 %/day
JFA net incorporation rate from brain acyl-CoA ([3]; PtdSer, Vehicle): 1,253 ± 792 nmol/g/day
FFA rate of turnover ([3]; Total PL, MEP): 80 ± 30 %/day
JFA net incorporation rate from brain acyl-CoA ([3]; Total PL, MEP): 19,285 ± 6,630 nmol/g/day
FFA rate of turnover ([3]; Total PL, Vehicle): 127 ± 57 %/day
JFA net incorporation rate from brain acyl-CoA ([3]; Total PL, Vehicle): 32,728 ± 17,692 nmol/g/day
Jin into diacylglycerol ([3]; vehicle): 106 ± 19 nmol/g/day
Jin into triacylglycerol ([3]; vehicle): 140 ± 23 nmol/g/day
radiolabeled FA composition ([5]; ChoGpl, MEP-treated rats): 3%
radiolabeled FA composition ([5]; ChoGpl, vehicle-treated rats): 6%
percent of total radiolabeled FAs ([5]; MEP-treated rats): 2%
percent of total radiolabeled FAs ([5]; vehicle-treated rats): 4%
Structure (SMILES): CCCCCCCCCCCCCCCC(=O)O [Palmitate, [1-14C]palmitate]
Jout net rate of loss from brain phospholipids [4]: 469 nmol/g/day
rate of loss from brain phospholipids [4]: 2 % per day

esterification of radiolabeled FA into brain total phospholipids ([1]; MEP): 8.3 ± 0.2 nCi/g brain
esterification of radiolabeled FA into brain total phospholipids ([1]; vehicle): 4.1 ± 0.2 nCi/g brain
radiolabeled FA composition ([5]; ChoGpl, MEP-treated rats): 26%
radiolabeled FA composition ([5]; ChoGpl, vehicle-treated rats): 18%
radiolabeled FA composition ([5]; EtnGpl, MEP-treated rats): 61%
radiolabeled FA composition ([5]; EtnGpl, vehicle-treated rats): 47%
percent of total radiolabeled FAs ([5]; MEP-treated rats): 38%
percent of total radiolabeled FAs ([5]; vehicle-treated rats): 24%
Structure (SMILES): CC/C=C\C/C=C\C/C=C\C/C=C\C/C=C\CCCCCC(=O)O [n-3 DPA, n-3 docosapentaenoic acid]
